Molecules are shown by their SMILES.

In the assay the test system is 293T-HRE-GFP-luc cells. The assay can be described thus: Cell-based reporter assay for IC50 determinations (HRE-luciferase, hypoxia). As to conditions: 6 h, 6 hrs hypoxia (1% O2), luminescence. The method, boiled down:
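293T-HRE-GFP-luc cells were pre-incubated with serially diluted compounds for 30 min under normoxia, then held 6 hrs in hypoxia (1% O2, 37° C). HRE-driven luciferase read by Steadylite Plus luminescence; IC50 from four-parameter logistic fit.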

Usually IC50 stands for the concentration needed to halve the response being measured. Take `CN1CCN(c2cccc(Cn3cc(-c4nnc(-c5ccc(OC(F)(F)F)cc5)o4)ccc3=O)c2)CC1` [Example 100, 1-Methyl-4-(3-((2-oxo-5-(5-(4-(trifluoromethoxy)phenyl)-1,3,4-oxadiazol-2-yl)pyridin-1(2H)-yl)methyl)phenyl)piperazin-1-ium 2,2,2-trifluoroacetate]: the concentration for half-maximal inhibition (IC50) is less than 100 nM. To `C#CCCCC(=O)N1CCN(c2cccc(Cn3cc(-c4nc(-c5ccc(OC(F)(F)F)cc5)no4)ccc3=O)c2)CC1` [Example 180] belongs less than 100 nM; to `CC(C)=Cc1cccc(Cn2cc(-c3nc(-c4ccc(OC(F)(F)F)cc4)no3)ccc2=O)c1` [Example 56, 1-(3-(2-methylprop-1-enyl)benzyl)-5-(3-(4-(trifluoromethoxy)phenyl)-1,2,4-oxadiazol-5-yl)pyridin-2(1H)-one], less than 100 nM; to `Cc1ccc(Cn2cc(-c3nc(-c4ccc(OC(F)(F)F)cc4)no3)ccc2=O)cc1` [Example 26, 1-(4-Methylbenzyl)-5-(3-(4-(trifluoromethoxy)phenyl)-1,2,4-oxadiazol-5-yl)pyridin-2(1H)-one], less than 100 nM. With `CC(=O)SCc1cccc(Cn2cc(-c3nc(-c4ccc(OC(F)(F)F)cc4)no3)ccc2=O)c1` [Example 44, 1-({3-[(Acetylsulfanyl)methyl]phenyl}methyl)-5-{3-[4-(trifluoromethoxy)phenyl]-1,2,4-oxadiazol-5-yl}-1,2-dihydropyridin-2-one] the figure was less than 100 nM; with `Cc1cnc(-c2nc(-c3ccc(OC(F)(F)F)cc3)no2)nc1Cc1cccc(N2CCN(C)CC2)c1` [Example 19, 5-(5-methyl-4-(3-(4-methylpiperazin-1-yl)benzyl)pyrimidin-2-yl)-3-(4-(trifluoromethoxy)phenyl)-1,2,4-oxadiazole], less than 100 nM; with `O=C(CO)N1CCN(c2cccc(Cn3cc(-c4nc(-c5ccc(OC(F)(F)F)cc5)no4)ccc3=O)c2)CC1` [Example 60], less than 100 nM.

The molecule `CS(=O)(=O)C1CCN(c2cccc(Cn3nc(-c4nc(-c5ccc(OC(F)F)cc5)no4)ccc3=O)c2)CC1` [Example 82, 6-(3-(4-(Difluoromethoxy)phenyl)-1,2,4-oxadiazol-5-yl)-2-(3-(4-(methylsulfonyl)piperidin-1-yl)benzyl)pyridazin-3(2H)-one] showed an IC50 of less than 100 nM. To `O=c1ccc(-c2nc(-c3ccc(OC(F)(F)F)cc3)no2)cn1Cc1cccc(CS)c1` [Example 45, 1-{[3-(Sulfanylmethyl)phenyl]methyl}-5-{3-[4-(trifluoromethoxy)phenyl]-1,2,4-oxadiazol-5-yl}-1,2-dihydropyridin-2-one] belongs less than 100 nM. Regarding `CC(C)c1ccc(-c2cc(-c3ccc(=O)n(Cc4cccc(N5CCC(S(C)(=O)=O)CC5)c4)c3)no2)cc1` [Example 255, 5-(5-(4-isopropylphenyl)isoxazol-3-yl)-1-(3-(4-(methylsulfonyl)piperidin-1-yl)benzyl)pyridin-2(1H)-one], the IC50 is less than 100 nM. With `COCCOc1cccc(Cn2cc(-c3noc(-c4ccc(S(=O)(=O)NC(C)C)cc4)n3)ccc2=O)c1` [Example 217, 4-[3-(1-{[3-(2-methoxyethoxy)phenyl]methyl}-6-oxo-1,6-dihydropyridin-3-yl)-1,2,4-oxadiazol-5-yl}-N-(propan-2-yl)benzene-1-sulfonamide] the figure was 100 to 1000 nM; with `CS(=O)(=O)CCCOc1cccc(Cn2cc(-c3noc(-c4ccc(S(=O)(=O)C(F)(F)F)cc4)n3)ccc2=O)c1` [Example 211, 1-{[3-(3-methanesulfonylpropoxy)phenyl]methyl}-5-[5-(4-trifluoromethanesulfonylphenyl)-1,2,4-oxadiazol-3-yl]-1,2-dihydropyridin-2-one], less than 100 nM. `CCCNS(=O)(=O)c1ccc(-c2nc(-c3ccc(=O)n(Cc4cccc(OCCOC)c4)c3)no2)cc1` [Example 234, 4-[3-(1-{[3-(2-methoxyethoxy)phenyl]methyl}-6-oxo-1,6-dihydroylpyridin-3-yl)-1,2,4-oxadiazol-5-yl]-N-propylbenzene-1-sulfonamide] returned a 50% inhibitory concentration (IC50) of 100 to 1000 nM. With `COCCOc1cccc(Cn2cc(-c3nc(-c4ccc(OC(F)(F)F)cc4)co3)ccc2=O)c1` [Example 94, 1-(3-(2-Methoxyethoxy)benzyl)-5-(4-(4-(trifluoromethoxy)phenyl)oxazol-2-yl)pyridin-2(1H)-one] the figure was less than 100 nM. `NCCOc1cccc(Cn2cc(-c3nc(-c4ccc(OC(F)(F)F)cc4)no3)ccc2=O)c1` [Example 34, 1-{[3-(2-Aminoethoxy)phenyl]methyl}-5-{3-[4-(trifluoromethoxy)phenyl]-1,2,4-oxadiazol-5-yl}-1,2-dihydropyridin-2-one] returned an IC50 of less than 100 nM. The molecule `COCCOc1cccc(Cn2cc(-c3noc(-c4cnc(OCC(C)C)nc4)n3)ccc2=O)c1` [Example 87, 5-(5-(2-Isobutoxypyrimidin-5-yl)-1,2,4-oxadiazol-3-yl)-1-(3-(2-methoxyethoxy)benzyl)pyridin-2(1H)-one] returned an IC50 of less than 100 nM. With `CC(C)(O)c1cccc(Cn2cc(-c3noc(-c4ccc(S(=O)(=O)C(F)(F)F)cc4)n3)ccc2=O)c1` [Example 213, 1-{[3-(2-hydroxypropan-2-yl)phenyl]methyl}-5-[5-(4-trifluoromethanesulfonylphenyl)-1,2,4-oxadiazol-3-yl]-1,2-dihydropyridin-2-one] the figure was less than 100 nM; with `CS(=O)(=O)CCCOc1cccc(Cn2cc(-c3noc(-c4ccc(N5CCOCC5)cc4)n3)ccc2=O)c1` [Example 204, 1-{[3-(3-methanesulfonylpropoxy)phenyl]methyl}-5-{5-[4-(morpholin-4-yl)phenyl]-1,2,4-oxadiazol-3-yl}-1,2-dihydropyridin-2-one], less than 100 nM. With `Cc1ccc(Cn2nc(-c3nc(-c4ccc(OC(F)(F)F)cc4)no3)ccc2=O)cc1` [Example 24, 2-(4-Methylbenzyl)-6-(3-(4-(trifluoromethoxy)phenyl)-1,2,4-oxadiazol-5-yl)pyridazin-3(2H)-one] the figure was less than 100 nM.

The molecule `CN1CCN(C(=O)Cc2cccc(Cn3nc(-c4nc(-c5ccc(OC(F)(F)F)cc5)no4)ccc3=O)c2)CC1` [Example 143, 2-({3-[2-(4-methylpiperazin-1-yl)-2-oxoethyl]phenyl}methyl)-6-{3-[4-(trifluoromethoxy)phenyl]-1,2,4-oxadiazol-5-yl}-2,3-dihydropyridazin-3-one] gave a concentration for half-maximal inhibition (IC50) of 100 to 1000 nM.

Molecule `NS(=O)(=O)c1cccc(Cn2cc(-c3nc(-c4ccc(OC(F)(F)F)cc4)no3)ccc2=O)c1` [Example 124, 3-((2-oxo-5-(3-(4-(trifluoromethoxy)phenyl)-1,2,4-oxadiazol-5-yl)pyridin-1(2H)-yl)methyl)benzenesulfonamide] gave a half-inhibitory concentration (IC50) of less than 100 nM. With `COCCOc1cccc(Cn2cc(-c3noc(-c4ccc(CO)cc4)n3)ccc2=O)c1` [Example 220, 5-{5-[4-(hydroxymethyl)phenyl]-1,2,4-oxadiazol-3-yl}-1-{[3-(2-methoxyethoxy)phenyl]methyl}-1,2-dihydropyridin-2-one] the figure was 100 to 1000 nM; with `C=CCOc1cccc(Cn2cc(-c3nc(-c4ccc(OC(F)(F)F)cc4)no3)ccc2=O)c1` [Example 54, 1-(3-(Allyloxy)benzyl)-5-(3-(4-(trifluoromethoxy)phenyl)-1,2,4-oxadiazol-5-yl)pyridin-2(1H)-one], less than 100 nM.

The values above are taken from US20140073634A1 (Institute For Applied Cancer Science/The University of …, priority 2012, published 2014).
